Experimental data: BindingDB's records for doi:10.1016/j.bmcl.2019.05.048 (Bristol-Myers Squibb, 2019)

Biological target: Hepatic lipase (Mouse)
Experiment: Inhibition of hepatic lipase in endothelial lipase knock-out mouse plasma using D31-POPC-HDL as substrate incubated for 2 hrs by LC/MS analysis

COCCS(=O)(=O)C(C(=O)NCC(=O)NC1CC1)c1nc2ccc(-c3ccc(F)nc3)cc2s1 (stereo unspecified)
IC50: 26 µM
